Reference: patent publication US20100298141A1, “SUBSTITUTED PYRIDINE N-OXIDE HERBICIDES” (E. I. DU PONT DE NEMOURS AND COMPANY, priority 2007, published 2010)

Columns and labels:
Assay in all cases: Test A pre-/postemergence greenhouse test
barnyardgrass = type: in vivo, Echinochloa crus-galli; details: for Plant response rating, Barnyardgrass: 0 to 100 scale where 0 is no effect and 100 is complete control; for Barnyardgrass plant response rating: 0 to 100 scale
Excerpt: (§1) Seeds of barnyardgrass (Echinochloa crus-galli), crabgrass (Digitaria sanguinalis), giant foxtail (Setaria faberi), morningglory (Ipomoea spp.), redroot pigweed (Amaranthus retroflexus), velvetleaf (Abutilon theophrasti), wheat (Triticum aestivum), and corn (Zea mays) were planted into a blend of loam soil and sand and treated preemergence with a directed soil spray using test compounds formulated in a non-phytotoxic solvent mixture which included a surfactant. At the same time these species were also treated with postemergence applications of test compounds formulated in the same manner. Plants ranged in height from two to ten cm and were in the one- to two-leaf stage for the postemergence treatment. Treated plants and untreated controls were maintained in a greenhouse for approximately ten days, after which time all treated plants were compared to untreated controls and visually evaluated for injury. […] A dash (-) response means no test results.

crabgrass = type: in vivo, Digitaria sanguinalis; details: for Plant response rating, Crabgrass, Large: 0 to 100 scale where 0 is no effect and 100 is complete control; for Crabgrass, Large plant response rating: 0 to 100 scale
Excerpt: as §1

giant foxtail = type: in vivo, Setaria faberi; details: for Plant response rating, Foxtail, Giant: 0 to 100 scale where 0 is no effect and 100 is complete control; for Foxtail, Giant plant response rating: 0 to 100 scale
Excerpt: as §1

morningglory = type: in vivo, Ipomoea spp.; details: for Plant response rating, Morningglory: 0 to 100 scale where 0 is no effect and 100 is complete control; for Morningglory plant response rating: 0 to 100 scale
Excerpt: as §1

redroot pigweed = type: in vivo, Amaranthus retroflexus; details: for Plant response rating, Pigweed: 0 to 100 scale where 0 is no effect and 100 is complete control; for Pigweed plant response rating: 0 to 100 scale
Excerpt: as §1

velvetleaf = type: in vivo, Abutilon theophrasti; details: for Plant response rating, Velvetleaf: 0 to 100 scale where 0 is no effect and 100 is complete control; for Velvetleaf plant response rating: 0 to 100 scale
Excerpt: as §1

wheat = type: in vivo, Triticum aestivum; details: for Plant response rating, Wheat: 0 to 100 scale where 0 is no effect and 100 is complete control; for Wheat plant response rating: 0 to 100 scale
Excerpt: as §1

corn = type: in vivo, Zea mays; details: for Plant response rating, Corn: 0 to 100 scale where 0 is no effect and 100 is complete control; for Corn plant response rating: 0 to 100 scale
Excerpt: as §1

[1] = Postemergence, 500 g ai/ha, 0 is no effect, 100 is complete control
[2] = Preemergence, 125 g ai/ha, 0 no effect, 100 complete control
[3] = Preemergence, 500 g ai/ha, 0 no effect, 100 complete control

Structure (SMILES) | Plant response rating, Barnyardgrass (barnyardgrass; Postemergence, 125 g ai/ha) | Barnyardgrass plant response rating (barnyardgrass; [1]) | Barnyardgrass plant response rating (barnyardgrass; [2]) | Barnyardgrass plant response rating (barnyardgrass; [3]) | Plant response rating, Crabgrass, Large (crabgrass; Postemergence, 125 g ai/ha) | Crabgrass, Large plant response rating (crabgrass; [1]) | Crabgrass, Large plant response rating (crabgrass; [2]) | Crabgrass, Large plant response rating (crabgrass; [3]) | Plant response rating, Foxtail, Giant (giant foxtail; Postemergence, 125 g ai/ha) | Foxtail, Giant plant response rating (giant foxtail; [1]) | Foxtail, Giant plant response rating (giant foxtail; [2]) | Foxtail, Giant plant response rating (giant foxtail; [3]) | Plant response rating, Morningglory (morningglory; Postemergence, 125 g ai/ha) | Morningglory plant response rating (morningglory; [1]) | Morningglory plant response rating (morningglory; [2]) | Morningglory plant response rating (morningglory; [3]) | Plant response rating, Pigweed (redroot pigweed; Postemergence, 125 g ai/ha) | Pigweed plant response rating (redroot pigweed; [1]) | Pigweed plant response rating (redroot pigweed; [2]) | Pigweed plant response rating (redroot pigweed; [3]) | further results
Cn1nc(C(F)(F)F)c(CS(=O)(=O)c2cc(C3CC3)cc[n+]2[O-])c1OCC(F)(F)F [Compound 119] | 40 | 60 | 50 | 90 | 40 | 60 | 80 | 90 | 30 | 70 | 90 | 100 | 10 | 20 | 30 | 80 | 30 | 60 | 100 | 100 | Plant response rating, Velvetleaf (velvetleaf; Postemergence, 125 g ai/ha): 10; Velvetleaf plant response rating (velvetleaf; [1]): 50; Velvetleaf plant response rating (velvetleaf; [2]): 20; Velvetleaf plant response rating (velvetleaf; [3]): 70; Plant response rating, Wheat (wheat; Postemergence, 125 g ai/ha): 30; Wheat plant response rating (wheat; [1]): 50; Wheat plant response rating (wheat; [2]): 0; Wheat plant response rating (wheat; [3]): 30; Plant response rating, Corn (corn; Postemergence, 125 g ai/ha): 0; Corn plant response rating (corn; [1]): 0; Corn plant response rating (corn; [2]): 0; Corn plant response rating (corn; [3]): 0
Cn1nc(C(F)(F)F)c(C[S+]([O-])c2cc(C3CC3)cc[n+]2[O-])c1OC(F)F (stereo not drawn) [Compound 120] | 60 | 70 | 80 | 100 | 50 | 80 | 90 | 90 | 80 | 90 | 100 | 100 | 50 | 80 | 80 | 90 | 60 | 80 | 100 | 100 | Plant response rating, Velvetleaf (velvetleaf; Postemergence, 125 g ai/ha): 60; Velvetleaf plant response rating (velvetleaf; [1]): 80; Velvetleaf plant response rating (velvetleaf; [2]): 60; Velvetleaf plant response rating (velvetleaf; [3]): 80; Plant response rating, Wheat (wheat; Postemergence, 125 g ai/ha): 40; Wheat plant response rating (wheat; [1]): 50; Wheat plant response rating (wheat; [2]): 50; Wheat plant response rating (wheat; [3]): 100; Plant response rating, Corn (corn; Postemergence, 125 g ai/ha): 30; Corn plant response rating (corn; [1]): 70; Corn plant response rating (corn; [2]): 80; Corn plant response rating (corn; [3]): 90
CC(C)c1cc[n+]([O-])c(S(=O)(=O)Cc2c(C(F)(F)F)nn(C)c2OCC(F)(F)F)c1 [Compound 111, 4-(1-methylethyl)-2-[[[1-methyl-5-(2,2,2-trifluoroethoxy)-3-trifluoromethyl-1H-pyrazol-4-yl]methyl]sulfonyl]pyridine 1-oxide] | 50 | 70 | 80 | 100 | 40 | 70 | 60 | 90 | 60 | 80 | 90 | 100 | 20 | 60 | 80 | 100 | 60 | 60 | 50 | 100 | Plant response rating, Velvetleaf (velvetleaf; Postemergence, 125 g ai/ha): 50; Velvetleaf plant response rating (velvetleaf; [1]): 60; Velvetleaf plant response rating (velvetleaf; [2]): 60; Velvetleaf plant response rating (velvetleaf; [3]): 100; Plant response rating, Wheat (wheat; Postemergence, 125 g ai/ha): 50; Wheat plant response rating (wheat; [1]): 60; Wheat plant response rating (wheat; [2]): 50; Wheat plant response rating (wheat; [3]): 80; Plant response rating, Corn (corn; Postemergence, 125 g ai/ha): 0; Corn plant response rating (corn; [1]): 40; Corn plant response rating (corn; [2]): 0; Corn plant response rating (corn; [3]): 50
